From patent US11419840B2, “Compositions and methods comprising C16:1N7-palmitoleate” (Tersus Life Sciences, LLC, priority 2011, dated 2022)

How the values were obtained:
[1] = system: Apo E knockout mice; assay: Quantification of aortic sinus lesions (oil red O staining of aortic root); assay type: in vivo, mouse; settings: rosuvastatin 20 mg/kg/day; its own control 0.36 ± 0.10
From the text: Thirty-four male Apo E knockout mice were obtained from Jackson Laboratories (Bar Harbor, Me.). The mice were fed with normal mouse chow until 2 months of age and randomly allocated into two groups (n=17 each). One group of mice was then fed a control Western high-fat diet (F5722, fat 20%, cholesterol 2.1 gm/kg). […] CCO-Oil has approximately 20 wt % C16:1n7-palmitoleate. The consistency of the food was a paste; it appeared to be enticing to the mice and well tolerated. Water was freely available throughout the course of the study. Blood samples were obtained 8 and 12 weeks after initiation of the diet. At 12 weeks, all mice were sacrificed by intraperitoneal injection of ketamine/xylazine. […] Data were presented as mean±SD. Statistical analysis was performed with t-test. P<0.05 indicates statistical significance.
The surface area of aorta occupied by atherosclerotic lesions was quantified by en face oil red 0 staining, using an approach modified from Palinski et al. After mice were killed, a catheter was inserted into the left ventricle and the arterial tree was perfused with PBS (25 ml), followed by 4% buffered formaldehyde (20 ml, PH 7.4) at a pressure of 100 mm Hg. Under a microscope (Leica M500) the entire aorta attached to the heart was dissected and the adventitial fat was dissected. […]

[2] = system: Apo E knockout mice; assay: Quantification of aorta lesions (en face Sudan IV staining); assay type: in vivo, mouse; settings: rosuvastatin 20 mg/kg/day; its own control 21.9 ± 2.9, P<0.05
From the text: Thirty-four male Apo E knockout mice were obtained from Jackson Laboratories (Bar Harbor, Me.). The mice were fed with normal mouse chow until 2 months of age and randomly allocated into two groups (n=17 each). One group of mice was then fed a control Western high-fat diet (F5722, fat 20%, cholesterol 2.1 gm/kg). The other group was fed a composition comprising C16:1n7-palmitoleate (CCO-Oil 20 wt %, cholesterol 2.1 gm/kg). […] Water was freely available throughout the course of the study. Blood samples were obtained 8 and 12 weeks after initiation of the diet. At 12 weeks, all mice were sacrificed by intraperitoneal injection of ketamine/xylazine. […] Data were presented as mean±SD. Statistical analysis was performed with t-test. P<0.05 indicates statistical significance.
The surface area of aorta occupied by atherosclerotic lesions was quantified by en face oil red 0 staining, using an approach modified from Palinski et al. After mice were killed, a catheter was inserted into the left ventricle and the arterial tree was perfused with PBS (25 ml), followed by 4% buffered formaldehyde (20 ml, PH 7.4) at a pressure of 100 mm Hg. Under a microscope (Leica M500) the entire aorta attached to the heart was dissected and the adventitial fat was dissected. The ascending aorta was transected, and the heart was placed in histo-choice for assessment of aortic root atherosclerosis. […]

## CC(C)c1nc(N(C)S(C)(=O)=O)nc(-c2ccc(F)cc2)c1/C=C/[C@@H](O)C[C@@H](O)CC(=O)O [Rosuvastatin]
[1]
  Aortic sinus lesion size: 0.35 ± 0.10 mm^2
[2]
  Aortic lesion (% of surface area): 11.9 ± 1.9 %
